Consider five substances from patent publication US20150225341A1, “PHARMACEUTICALLY ACCEPTABLE SALTS OF THYMODEPRESSIN AND PROCESSES FOR THEIR MANUFACTURE” (APOTEX TECHNOLOGIES INC., priority 2014, published 2015).

“Also recorded” adds a separate entry of the source. A value given as a limit tells only on which side of the number the result lay.

What all share (type): physicochemical
A short description of series [1]: Speciation plot calculation of solution pH (FIG. 5, from experimentally determined pKas). The note with it: according to speciation plot FIG. 5; 0.5 M solution. The source says: A pharmaceutically acceptable salt of a drug substance is one that is chemically stable and can be used in a pharmaceutical composition. Unlike simple aromatic hydrocarbons, thymodepressin is a dipeptide with multi-functional groups. The dipeptide D-isoglutamyl-D-tryptophan has an alpha amine, two carboxylic acids and an indole nitrogen within the same molecule. An ideal salt should be one that has a solution pH close to about 7 and in the low basic pH range. Through investigations in our laboratory, in the search for a novel salt to address the shortcomings of the disodium salt of D-isoglutamyl-D-tryptophan, the speciation plot (FIG. 5) was used to determine salts with ideal solution pH and solubility that are suitable for pharmaceutical formulations. FIG. 5 is a speciation plot of H-D-iGlu-D-Trp-OH from pH 0 to 12 using experimentally determined pKas. In FIG. 5, LH2=H-D-iGlu-D-Trp-OH, LH=mono carboxylic acid salt, L=dicarboxylic acid salt, and LH3=acid addition salt of H-D-iGlu-D-Trp-OH. The X axis provides the pH of the solution, whereas the Y axis reports the amount of the species present at a particular pH. From our practical experience, we use 6 ml of water per gm of H-D-iGlu-D-Trp-OH for isolation purposes, which corresponds to a concentration of 0.5 M solution.
According to the speciation plot calculation shown in FIG. 5, the diacid form has a pH of about 2.7 to about 3 in solution. The metal salt of formula I wherein M is potassium or lithium; the divalent salt of formula II wherein B is calcium or magnesium has a solution pH close to about 7.
We have applied the speciation plot (FIG. 5) to compute the pH range of the salt forms of the dipeptide H-D-iGlu-D-Trp-OH. […] This is particular ideal for liquid formulation, sublingual tablets, nasal drops and sprays.

Series [2] in a line: Percent crystallinity by X-ray powder diffraction. The source says: The overall crystallinity measured by means of the XRPD technique provides additional helpful information for pharmaceutical materials that contain some amorphous material formed during synthetic procedure. It is also a valuable measure for control of long-term changes in the crystalline materials. Although not related to any structural and compositional features, the measured “percent crystallinity” may be a good indicator for the stability of a particular material as a function of time.
The percent crystallinity is commonly measured as a ratio between the diffraction portion from the crystalline part of the sample, IC, and the total diffraction from the same sample, IC+B. The values of CC can be obtained after an appropriate subtraction of the scattering portion from the background, IB.
For such kind of analyses, the diffraction is measured as total area under the profile of: • the whole pattern as it is collected (one may correct for the air scattering)—ITOTAL. • the peaks only (IC) after subtraction of the background (correction for the air scattering), • the background only with correction for air scattering—(IB).
However, in this study, due to the technical problems with the D5000 point-detector diffraction system, all the samples were analyzed on a D8 system, equipped with an area, 2D detector, and the above-mentioned approach could not be applied. Therefore, another technique has been developed for measuring the crystallinity of samples analyzed on such system. Only a narrow part of the 2D diffraction image is chosen with a single peak at the centre and a neighbour area where the background will be measured.
All samples were measured for calculation of their crystallinity using a narrow range of 21°-25° with a strongest reflection at […]. The background was subtracted as linear, and an empirical correlation coefficient of 2.5 was applied.

Series [3] in a line: Hygroscopicity of the solid salt in air (laboratory observation). The note with it: solid (freeze-dried / amorphous) salt.

With “potassium salt of D-isoglutamyl-D-tryptophan (1:1) [Example 1]”, the pH in solution result in series [1] is recorded as “about 7”.
“lithium salt of D-isoglutamyl-D-tryptophan (1:1) [Example 3A]”: the pH in solution result in series [1] is reported as “about 7”.
“calcium salt of D-isoglutamyl-D-tryptophan (1:2) [Example 7]”: the “% crystallinity” value in series [2] (XRPD, D8 system with 2D detector, not absolute values, listed as Example 8) is 18-20%; in series [2] (XRPD, D8 system with 2D detector, not absolute values, listed as H-D-iGlu-D-Trp-OH calcium (2:1)), “less than 67%”; in series [2] (XRPD, D8 system with 2D detector; not absolute values; listed as calcium salt of thymodepressin [1:2)), ≤ 67%. Further, the pH in solution result in series [1] is reported as “about 7”.
Take “disodium salt of D-isoglutamyl-D-tryptophan”: the pH in solution result in series [1] was “above 9.0”. Besides, the “hygroscopicity of the solid” value in series [3] was “extremely hygroscopic turning into a gel in a matter of minutes in air; also recorded: hygroscopic and very difficult to handle”; in series [3] (listed as disodium salt), “extremely hygroscopic and very difficult to weigh”.
Take “magnesium salt of D-isoglutamyl-D-tryptophan (1:2) [Example 5]”: in series [1], the pH in solution result was “about 7”.
